Laboratory results: article PMC3748936 (Chembiochem : a European journal of chemical biology, 2012)

How the values were obtained:
[1] = molecular target: T1, E. coli GMPS (Escherichia coli, UniProt P04079); settings: previous report; cited from earlier work
T1 sequence (P04079 1-525): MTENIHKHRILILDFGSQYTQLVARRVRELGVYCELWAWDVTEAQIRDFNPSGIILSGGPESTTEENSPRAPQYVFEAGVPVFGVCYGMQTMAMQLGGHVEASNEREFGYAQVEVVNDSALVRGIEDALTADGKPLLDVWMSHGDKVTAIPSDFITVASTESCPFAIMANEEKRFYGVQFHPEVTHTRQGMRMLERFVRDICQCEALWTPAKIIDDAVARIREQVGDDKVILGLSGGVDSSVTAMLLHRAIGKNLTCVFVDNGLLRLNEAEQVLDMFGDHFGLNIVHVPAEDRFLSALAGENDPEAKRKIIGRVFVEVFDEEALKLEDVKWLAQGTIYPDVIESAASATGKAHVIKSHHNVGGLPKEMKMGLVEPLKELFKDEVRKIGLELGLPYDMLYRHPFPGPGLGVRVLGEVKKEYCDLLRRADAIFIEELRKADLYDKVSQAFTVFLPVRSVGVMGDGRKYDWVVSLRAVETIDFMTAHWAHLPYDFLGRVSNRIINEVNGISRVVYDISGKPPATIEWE

[2] = molecular target: T1, E. coli GMPS; assay: GMPS inhibition of D-XMP amination, UV-Vis analysis; type: biochemical
[3] = molecular target: GMPS; settings: previous report; cited from earlier work
[4] = molecular target: T1, E. coli GMPS; assay: HPLC-based assay of GMPS enzymatic reaction products; type: biochemical
[5] = molecular target: T1, E. coli GMPS; assay: Continuous UV spectrophotometric assay of GMPS; type: biochemical; settings: UV-Vis analysis, triplicate, average +/- S.D.
[6] = test system: GMPS isolated from rat Walker sarcoma cells; settings: cited from earlier work
[7] = substrate: O=c1[nH]c(=O)c2ncn([C@@H]3O[C@H](COP(=O)(O)O)[C@@H](O)[C@H]3O)c2[nH]1; assay: Continuous UV spectrophotometric assay of GMPS; type: biochemical, E. coli; settings: other: UV-Vis analysis; triplicate, average +/- S.D.

In the case of `O=c1[nH]c(=O)c2ncn([C@@H]3O[C@H](COP(=O)(O)O)[C@@H](O)[C@H]3O)c2[nH]1` [D-XMP, xanthosine 5′-monophosphate], the “kcat (turnover number)” value [1] is listed as 9.4×10^–2 s^–1.

In the case of `OC[C@H]1O[C@@H](n2cnc3c(O)nc(O)nc32)[C@H](O)[C@@H]1O` [D-Xanthosine, D-xanthosine], the “GMPS inhibition (in words)” value [2] is reported as “neither molecule inhibited GMPS”.

In the case of `C=C1O[C@@](CO)(n2cnc3c(N)ncnc32)[C@H](O)[C@@H]1O` [Decoyinine, decoyinine], the Ki [2] is listed as 54.1 ± 14.5 µM and the Ki [3] is listed as 26 µM.

For `O=c1[nH]c(=O)c2ncn([C@H]3O[C@@H](COP(=O)(O)O)[C@H](O)[C@@H]3O)c2[nH]1` [L-XMP], the “Km fold higher than the natural enantiomer D-XMP” value ([4]; HPLC analysis) was ~ 10 fold, the “kcat fold difference in turnover number compared to D-XMP” value ([4]; HPLC analysis) was 15,000 fold and the “kcat/Km (specific activity) fold decrease from the natural enantiomer” value ([4]; HPLC analysis) was 140,000 fold. The “conversion of substrate by GMPS (HPLC peak, MS confirmed)” value ([4]; incubation with GMPS and NH4OAc) was “converted to L-GMP by GMPS”, the kcat ([5]; substrate turnover to GMP) was 3.1 (± 0.7) × 10^−6 s^−1 and the Km [5] was 330 ± 105 µM. The “fold more potent than decoyinine inhibition against E. coli GMPS” value ([2]; from Ki values) was ~7 fold.

For `O=c1[nH]c(=O)c2ncn(C3OC(CO)C(O)C3O)c2[nH]1` [L-Xanthosine, L-xanthosine], the “GMPS inhibition (in words)” value [2] was “neither molecule inhibited GMPS”.

For `NC(=O)c1ncn([C@@H]2O[C@H](CO)[C@@H](O)[C@H]2O)c1O` [Mizoribine], the Ki [2] is listed as 1.8 ± 0.7 µM and the Ki [6] is listed as 10 µM.

B1: E. coli GMPS (Escherichia coli K-12) (protein)
chain: MTENIHKHRILILDFGSQYTQLVARRVRELGVYCELWAWDVTEAQIRDFNPSGIILSGGPESTTEENSPRAPQYVFEAGVPVFGVCYGMQTMAMQLGGHVEASNEREFGYAQVEVVNDSALVRGIEDALTADGKPLLDVWMSHGDKVTAIPSDFITVASTESCPFAIMANEEKRFYGVQFHPEVTHTRQGMRMLERFVRDICQCEALWTPAKIIDDAVARIREQVGDDKVILGLSGGVDSSVTAMLLHRAIGKNLTCVFVDNGLLRLNEAEQVLDMFGDHFGLNIVHVPAEDRFLSALAGENDPEAKRKIIGRVFVEVFDEEALKLEDVKWLAQGTIYPDVIESAASATGKAHVIKSHHNVGGLPKEMKMGLVEPLKELFKDEVRKIGLELGLPYDMLYRHPFPGPGLGVRVLGEVKKEYCDLLRRADAIFIEELRKADLYDKVSQAFTVFLPVRSVGVMGDGRKYDWVVSLRAVETIDFMTAHWAHLPYDFLGRVSNRIINEVNGISRVVYDISGKPPATIEWE
With B1 the Km [7] was 24.9 ± 6.6 µM, the kcat [7] was 0.043 ± 0.007 s⁻¹ and the kcat/Km [7] was 1700 M⁻¹ s⁻¹.
